# pIC50: −log10 of the molar value.
# Molecular target: T1, Chymase purified form human skin mast cells (Homo sapiens, UniProt P23946)
# T1 construct: Chymase purified form human skin mast cells was obtained from Calbiochem; purchased Calbiochem (Merck Biosciences, San Diego, Calif., USA); host or cells: human skin mast cells (natural source)
# T1 sequence (P23946 22-247): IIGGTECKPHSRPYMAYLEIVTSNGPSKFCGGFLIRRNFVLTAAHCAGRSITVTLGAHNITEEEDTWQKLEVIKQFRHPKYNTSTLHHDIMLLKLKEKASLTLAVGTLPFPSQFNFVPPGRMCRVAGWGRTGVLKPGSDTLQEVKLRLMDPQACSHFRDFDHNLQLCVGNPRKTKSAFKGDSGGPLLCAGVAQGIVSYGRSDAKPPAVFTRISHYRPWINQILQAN
# Assay: chymase peptide substrate (AAPF-AMC) fluorescence assay
# Assay type: biochemical
# Conditions: 0.02 mM AAPF-substrate, 0.1 nM Chymase, pH 7.4, room temperature, 30 min pre-incubation
# Description: The peptide was synthesized with a purity of 95% from Bachem, Bubendorf, Switzerland). Chymase purified form human skin mast cells was obtained from Calbiochem (Merck Biosciences, San Diego, Calif., USA). The assay buffer was 0.15 M NaCl, 0.05M, Tris HCl, 0.05% CHAPS (3-[(3-Cholamidopropyl)-dimethylammonio]-1-propane sulphonate), 0.1 mg/ml Heparin (Heparin sodium, Sigma, porcine intestinal mucosa), 0.02 mM AAPF-substrate, 0.1 nM Chymase at pH 7.4. The assay was performed in 96-well plates (Packard Optiplate), with a 0.05 ml volume at room temperature. Chymase activity was indicated by the initial rate of increase in fluorescence at 340/440 nm (excitation/emission) from free 7-amino-4-methylcoumarin released from the substrate. Inhibition of the activity by inhibitory compounds was read after 30 min pre-incubation with the chymase at room temperature in assay buffer without AAPF-substrate. The assay was then started by addition of the indicated concentration of AAPF-substrate.
row,pIC50,Compound
1,7.43,"O=C(O)Cc1c(C(=O)O)n(Cc2cccc3ccccc23)c2ccccc12 [Example 5, 3-Carboxymethyl-1-naphthalen-1-ylmethyl-1H-indole-2-carboxylic acid]"
2,7.42,"Cc1ccc(C(=O)NCc2c(C(=O)O)n(Cc3cccc4ccccc34)c3ccccc23)cc1 [Example 10, 3-[(4-Methyl-benzoylamino)-methyl]-1-naphthalen-1-ylmethyl-1H-indole-2-carboxylic acid]"
3,7.52,"O=C(O)c1cc2ccccc2n1Cc1csc2ccc(F)cc12 [Example 55, 1-(5-Fluoro-benzo[b]thiophen-3-ylmethyl)-1H-indole-2-carboxylic acid]"
4,9.10,"CS(=O)(=O)NCc1c(C(=O)O)n(Cc2cccc3ccc(F)cc23)c2ccccc12 [Example 105, 1-(7-Fluoro-naphthalen-1-ylmethyl)-3-(methanesulfonylamino-methyl)-1H-indole-2-carboxylic acid]"
5,9.70,"COC(=O)N(C)Cc1c(C(=O)O)n(Cc2cccc3ccc(F)cc23)c2ccccc12 [Example 106, 1-(7-Fluoro-naphthalen-1-ylmethyl)-3-[(methoxycarbonyl-methyl-amino)-methyl]-1H-indole-2-carboxylic acid]"
6,9.00,"COC(=O)N(C)Cc1c(C(=O)O)n(Cc2csc3ccc(F)cc23)c2ccccc12 [Example 117, 1-(5-Fluoro-benzo[b]thiophen-3-ylmethyl)-3-[(methoxycarbonyl-methyl-amino)-methyl]-1H-indole-2-carboxylic acid]"

row,Compound,pIC50
1,"O=C(O)c1cc2ccccc2n1Cc1cccc2ccc(F)cc12 [Example 49, 1-(7-Fluoro-naphthalen-1-ylmethyl)-1H-indole-2-carboxylic acid]",7.77
